Laboratory results: patent publication US20250034113A1, “SOLID STATE FORMS OF TAVAPADON AND PROCESSES FOR PREPARATION THEREOF” (TEVA CZECH INDUSTRIES S.R.O, priority 2021, published 2025)

Experiment: Stability test of crystalline forms at different relative humidities and temperatures, XRPD analysis
Format: physicochemical
Conditions: for time stable after exposure to different relative humidity conditions at different temperatures: 25° C./60% RH and 40° C./75% RH, by XRPD; for XRPD analysis after storage: 2 month; for stability to conditions of relative humidity at elevated temperatures: general statement
Experimental: Powder X-ray Diffraction was performed on an X-Ray powder diffractometer PanAlytical X'pert Pro; CuKα radiation (λ=1.54187 Å); X'Celerator detector with active length 2.122 degrees 2-theta; laboratory temperature 25±3° C.; zero background sample holders. Prior to analysis, the samples were gently ground using a mortar and pestle to obtain a fine powder. The ground sample was adjusted into a cavity of the sample holder and the surface of the sample was smoothed using a cover glass.
• Scan range: 3-40 degrees 2-theta • Scan mode: continuous • Step size: 0.0167 degrees • […] s • Sample spin: 60 rpm • Sample holder: zero background silicon plate
Samples of Tavapadon form 1 and Form H1 were subjected to conditions of different relative humidities at different temperatures. XRPD analysis was performed on the samples after 2 month.
Samples of Tavapadon Form H1 were subjected to conditions of different relative humidities at different temperatures, over a time period of 6 months. XRPD analysis was performed on the samples after 2, 4 and 6 months.
Samples of Tavapadon Form R1 were subjected to conditions of different relative humidities at different temperatures, over a time period of 6 months. XRPD analysis was performed on the samples after 2, 4 and 6 months.

| XRPD result (crystalline form) (0 M (start)) | time stable after exposure to different relative humidity conditions at different temperatures | XRPD result (crystalline form) (25° C./60% RH, 2 M) | XRPD result (crystalline form) (25° C./60% RH, 4 M) | XRPD result (crystalline form) (25° C./60% RH, 6 M) | XRPD result (crystalline form) (40° C./75% RH, 2 M) | XRPD result (crystalline form) (40° C./75% RH, 4 M) | XRPD result (crystalline form) (40° C./75% RH, 6 M) | XRPD analysis after storage (25° C., 60% RH) | XRPD analysis after storage (40° C., 75% RH) | stability to conditions of relative humidity at elevated temperatures | Compound |
| --- | --- | --- | --- | --- | --- | --- | --- | --- | --- | --- | --- |
| Form R1 | at least 6 months | Form R1 | Form R1 | Form R1 | Form R1 | Form R1 | Form R1 |  |  |  | Cc1cc(Oc2ncccc2C(F)(F)F)ccc1-c1c(C)c(=O)[nH]c(=O)n1C (racemic) [Tavapadon Form R1, 1,5-dimethyl-6-(2-methyl-4-{[3-(trifluoromethyl)pyridin-2-yl]oxy}phenyl)pyrimidine-2,4(1H,3H)-dione] |
|  |  |  |  |  |  |  |  | No change | No change | particularly stable | Cc1cc(Oc2ncccc2C(F)(F)F)ccc1-c1c(C)c(=O)[nH]c(=O)n1C (single isomer, unassigned) [Tavapadon Form 1, 1,5-dimethyl-6-(2-methyl-4-{[3-(trifluoromethyl)pyridin-2-yl]oxy}phenyl)pyrimidine-2,4(1H,3H)-dione] |
| Form H1 | at least 6 months | Form H1 | Form H1 | Form H1 | Form H1 | Form H1 | Form H1 | No change |  | particularly stable | Cc1cc(Oc2ncccc2C(F)(F)F)ccc1-c1c(C)c(=O)[nH]c(=O)n1C (single isomer, unassigned) [Tavapadon Form H1, 1,5-dimethyl-6-(2-methyl-4-{[3-(trifluoromethyl)pyridin-2-yl]oxy}phenyl)pyrimidine-2,4(1H,3H)-dione] |
